# Where “and” joins values, the source holds several entries; their conditions need not be identical. Identical values can stand only once.
# Assays:
# Ca9-22 = assay: Cytotoxicity against human Ca9-22 cells; assay type: functional, cell-based
# HSC-2 = assay: Cytotoxicity against human HSC-2 cells; assay type: functional, cell-based
# Plasmodium falciparum [1] = assay: Antiplasmodial activity against Plasmodium falciparum K1; assay type: functional, organism-based
# Melanoma cell line = assay: Antiproliferative activity against human Melanoma cell; assay type: functional
# Prostatic carcinoma cell = assay: Antiproliferative activity against human Prostatic carcinoma cell; assay type: functional
# Plasmodium falciparum [2] = assay: Antiplasmodial activity against Plasmodium falciparum HB3; assay type: functional, organism-based
# Leukemia cell [3] = assay: Antiproliferative activity against human Leukemia cell; assay type: functional
# Colon cell line = assay: Antiproliferative activity against human Colon cell line; assay type: functional
# [4] = Cytotoxicity against human HFF cells; assay type: toxicity, cell-based
# HeLa [5] = assay: Potency index, ratio of artesunate IC50 to test compound IC50 for antiproliferative activity against human HeLA cells assessed as inhibition of cell growth; assay type: functional
# HCT-116 [6] = assay: Potency index, ratio of artesunate IC50 to test compound IC50 for antiproliferative activity against human HCT-116 cells assessed as inhibition of cell growth; assay type: functional
# [7] = Potency index, ratio of artesunate IC50 to test compound IC50 for antiproliferative activity against human 1205Lu cells assessed as inhibition of cell growth; assay type: functional
# [8] = Antiproliferative activity against human 1205Lu cells; assay type: functional, cell-based
# HCT-116 [9] = assay: Antiproliferative activity against human HCT-116 cells; assay type: functional, cell-based
# HeLa [10] = assay: Antiproliferative activity against human HeLa cells; assay type: functional, cell-based
# [11] = Cytotoxicity against human HEK293 cells; assay type: toxicity, cell-based
# K562 = assay: Antiproliferative activity against human K562 cells; assay type: functional, cell-based
# HEK293 = assay: Antiproliferative activity against human HEK293 cells; assay type: functional, cell-based
# MDA-MB-231 = assay: Antiproliferative activity against human MDA-MB-231 cells; assay type: functional, cell-based; details: Homo sapiens, MDA-MB-231
# A-431 = assay: Antiproliferative activity against human A-431 cells; assay type: functional, cell-based
# A549 = assay: Antiproliferative activity against human A549 cells; assay type: functional, cell-based
# COLO 205 = assay: Antiproliferative activity against human COLO 205 cells; assay type: functional, cell-based
# PC-3 = assay: Antiproliferative activity against human PC-3 cells; assay type: functional, cell-based
# HCT-116 [12] = assay: Antiproliferative activity against human HCT-116 cells assessed as reduction in cell viability; assay type: functional, cell-based; details: hct-116
# Leukemia cell [13] = assay: Antiproliferative activity against human Leukemia cell assessed as reduction in cell viability; assay type: functional, cell-based
# Leukemia cell [14] = assay: Potency index, ratio of artesunate IC50 to test compound IC50 for antiproliferative activity against human Leukemia cell assessed as inhibition of cell growth; assay type: functional
# TRAMP-C2H = assay: Cytotoxicity against mouse TRAMP-C2H cells assessed as inhibition of cell growth measured for 72 hrs by MTT assay; assay type: functional
# LNCaP = assay: Cytotoxicity against human LNCaP cells assessed as inhibition of cell growth measured for 72 hrs by MTT assay; assay type: functional
# HeLa [15] = assay: Antiproliferative activity against human HeLa cells assessed as reduction in cell viability; assay type: functional, cell-based
# TRAMP-C1A = assay: Cytotoxicity against mouse TRAMP-C1A cells assessed as inhibition of cell growth measured for 72 hrs by MTT assay; assay type: functional
# HL-60 [16] = assay: Antiproliferative activity against human HL-60 cells assessed as reduction in cell viability measured after 72 hrs; assay type: functional, cell-based; details: HL-60, 72 h
# P388 = assay: Potency index, ratio of test compound IC50 to dihydroartemisinin IC50 for antiproliferative activity against mouse P388 cells assessed as reduction in cell viability measured after 72 hrs; assay type: functional
# [17] = Antiproliferative activity against mouse P388 cells assessed as reduction in cell viability measured after 72 hrs; assay type: functional, cell-based; details: 72 h
# HL-60 [18] = assay: Potency index, ratio of test compound IC50 to dihydroartemisinin IC50 for antiproliferative activity against human HL-60 cells assessed as reduction in cell viability measured after 72 hrs; assay type: functional
# MCF7 = assay: Antiproliferative activity against doxorubicin resistant human MCF7 cells; assay type: functional, cell-based
# P388/ADR [19] = assay: Potency index, ratio of test compound IC50 to dihydroartemisinin IC50 for antiproliferative activity against mouse P388/ADR cells assessed as reduction in cell viability measured after 72 hrs; assay type: functional
# P388/ADR [20] = assay: Antiproliferative activity against mouse P388/ADR cells assessed as reduction in cell viability measured after 72 hrs; assay type: functional, cell-based; details: 72 h
# C2G cell line = assay: Antiproliferative activity against mouse C2G cell line; assay type: functional, cell-based
smiles,measurement,setting,value
C[C@H]1[C@@H](CCC(=O)Nc2cnc3ccccc3c2)O[C@@H]2O[C@@]3(C)CC[C@H]4[C@H](C)CC[C@@H]1[C@@]24OO3,IC50,Ca9-22,49700 nM
same,IC50,HSC-2,36900 nM
C[C@H]1[C@@H](CCOP(=O)(OCC[C@H]2[C@@H](C)O[C@@H]3O[C@@]4(C)CC[C@H]5[C@H](C)CC[C@@H]2[C@@]35OO4)Oc2ccccc2)O[C@@H]2O[C@@]3(C)CC[C@H]4[C@H](C)CC[C@@H]1[C@@]24OO3 (some centres undefined),IC50,Plasmodium falciparum [1],0.09 nM
same,GI50,Melanoma cell line,< 10 nM
same,GI50,Prostatic carcinoma cell,< 10 nM
same,IC50,Plasmodium falciparum [2],0.09 nM
same,GI50,Leukemia cell [3],10 nM
same,GI50,Colon cell line,< 10 nM
C[C@H]1[C@@H](CC(C[C@H]2O[C@@H]3O[C@@]4(C)CC[C@H]5[C@H](C)CC[C@@H]([C@H]2C)[C@@]35OO4)CS(=O)(=O)c2ccc(COC(=O)N(C)C)cc2)O[C@@H]2O[C@@]3(C)CC[C@H]4[C@H](C)CC[C@@H]1[C@@]24OO3 (some centres undefined),IC50,[4],4900 nM
same,Ratio IC50,HeLa [5],12.6
same,Ratio IC50,HCT-116 [6],12.6
same,Ratio IC50,[7],12.6
same,IC50,[8],70 nM
same,IC50,HCT-116 [9],70 nM
same,IC50,HeLa [10],70 nM
C[C@H]1[C@@H](OCc2cn(-c3ccc(O)cc3)nn2)O[C@@H]2O[C@@]3(C)CC[C@H]4[C@H](C)CC[C@@H]1[C@@]24OO3,IC50,[11],> 100 µg/mL
same,IC50,K562,4060 nM
same,IC50,HEK293,4060 nM
same,IC50,MDA-MB-231,4060 nM
same,IC50,A-431,4060 nM
same,IC50,A549,4060 nM
same,IC50,COLO 205,4060 nM
same,IC50,PC-3,4060 nM
C[C@H]1[C@@H](CC(COP(=O)(Oc2ccccc2)Oc2ccccc2)C[C@H]2O[C@@H]3O[C@]4(C)CC[C@H]5[C@H](C)CC[C@@H]([C@H]2C)[C@@]35OO4)O[C@@H]2O[C@@]3(C)CC[C@H]4[C@H](C)CC[C@@H]1[C@@]24OO3 (some centres undefined),IC50,HCT-116 [12],40 nM and 190 nM
same,Ratio IC50,HeLa [5],68.8
same,Ratio IC50,HCT-116 [6],68.8
same,IC50,Leukemia cell [13],100 nM
same,Ratio IC50,Leukemia cell [14],68.8
same,GI50,TRAMP-C2H,44.8 nM
same,GI50,LNCaP,34.4 nM
same,IC50,HeLa [15],40 nM
same,GI50,TRAMP-C1A,31.9 nM
C[C@H]1[C@@H](OCc2cn(-c3ccccc3C(=O)/C=C/c3ccccc3C(F)(F)F)nn2)O[C@@H]2O[C@@]3(C)CC[C@H]4[C@H](C)CC[C@@H]1[C@@]24OO3,IC50,[11],> 100 µg/mL
same,IC50,K562,4060 nM
same,IC50,HEK293,4060 nM
same,IC50,MDA-MB-231,4060 nM
same,IC50,A-431,4060 nM
same,IC50,A549,4060 nM
same,IC50,COLO 205,4060 nM
same,IC50,PC-3,4060 nM
C[C@H]1[C@@H](Oc2ccc(Cn3ccnn3)cc2)O[C@@H]2O[C@@]3(C)CC[C@H]4[C@H](C)CC[C@@H]1[C@@]24OO3,IC50,HL-60 [16],65 nM
same,Ratio IC50,P388,4.6
same,IC50,[17],47 nM
same,Ratio IC50,HL-60 [18],4.6
same,IC50,MCF7,47 nM
same,Ratio IC50,P388/ADR [19],4.6
same,IC50,P388/ADR [20],2890 nM
Nc1ccn([C@@H]2O[C@H](CO)[C@@H](O)C2(F)F)c(=O)n1 [GEMCITABINE],IC50,C2G cell line,3.7 nM
COP(=O)(OCC[C@H]1[C@@H](C)O[C@@H]2O[C@@]3(C)CC[C@H]4[C@H](C)CC[C@@H]1[C@@]24OO3)OCC[C@H]1O[C@@H]2O[C@@]3(C)CC[C@H]4[C@H](C)CC[C@@H]([C@H]1C)[C@@]24OO3 (some centres undefined),IC50,Plasmodium falciparum [1],0.09 nM
same,GI50,Melanoma cell line,< 10 nM
same,GI50,Prostatic carcinoma cell,< 10 nM
same,IC50,Plasmodium falciparum [2],0.09 nM
same,GI50,Leukemia cell [3],< 10 nM
same,GI50,Colon cell line,< 10 nM

# Reference: ChEMBL document CHEMBL5244230, “Artemisinin-derived hybrids and their anticancer activity” (Eur J Med Chem, 2020)
